Laboratory results published in US20230081426A1, “COMPOUNDS AND METHODS FOR KRAS MODULATION AND INDICATIONS THEREFOR” (Plexxikon Inc., priority 2020, published 2023).

Key:
[1] = target: T1, G12D-mutant human KRAS (amino acid residues 1-188) (Homo sapiens, UniProt P01116, G12D); experiment: KRAS Binding Disruption Assay (AlphaScreen; biotinylated KRpep-2d analogue or RAF1-RBD), G12D; conditions: KRAS G12D; geometric mean; read-out: KRAS GMean IC50 (uM) MUTATION: G12D
T1 construct: G12D or G12C-mutant human KRAS (amino acid residues 1-188) with FLAG tag; made in house; host or cells: E. coli
Method in brief: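 Displacement format with mutant KRAS, biotinylated KRpep-2d analogue or RAF1-RBD (5-20 nM each) at pH 7.5 with 5 mM MgCl2.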

[2] = target: T2, G12V-mutant human KRAS (amino acid residues 1-188) (Homo sapiens, UniProt P01116, G12V); experiment: KRAS Binding Competition Assay (AlphaScreen; biotinylated KRpep-2d analogue), G12V; conditions: geometric mean, read-out: KRAS GMean IC50 (uM) MUTATION: G12V
T2 construct: G12V-mutant human KRAS (amino acid residues 1-188) with FLAG tag was purified from E. coli; made in house; host or cells: E. coli

SMILES	IC50 [1] [µM]	IC50 [2] [µM]
CN1CCC[C@H]1COc1nc(N2C[C@H]3CC[C@@H](C2)N3CC(=O)N2CCC(N)CC2)c2ccc(-c3cc(O)cc4ccccc34)c(F)c2n1 [P-0427, 1-(4-aminopiperidin-1-yl)-2-((1R,5S)-3-(8-fluoro-7-(3-hydroxynaphthalen-1-yl)-2-(((S)-1-methylpyrrolidin-2-yl)methoxy)quinazolin-4-yl)-3,8-diazabicyclo[3.2.1]octan-8-yl)ethan-1-one]	10 to 100	100 to 1000
CN1CCC[C@H]1COc1nc(N2C[C@H]3CC[C@@H](C2)N3)c2ccc(-c3ccc4c(c3)NCCO4)cc2n1 [P-0173, 6-(4-((1R,5S)-3,8-diazabicyclo[3.2.1]octan-3-yl)-2-(((S)-1-methylpyrrolidin-2-yl)methoxy)quinazolin-7-yl)-3,4-dihydro-2H-benzo[b][1,4]oxazine]	10 to 100	10 to 100
CN1CCC[C@H]1COc1nc(N2C[C@H]3CC[C@@H](C2)N3)c2cc(F)c(N3CC(O)Cc4ccccc43)c(F)c2n1 (stereo partly drawn) [P-0344, 1-(4-((1R,5S)-3,8-diazabicyclo[3.2.1]octan-3-yl)-6,8-difluoro-2-(((S)-1-methylpyrrolidin-2-yl)methoxy)quinazolin-7-yl)-1,2,3,4-tetrahydroquinolin-3-ol]	0.0001 to 10	100 to 1000
CN1CCc2cccc(Oc3nc(N4C[C@H]5CC[C@@H](C4)N5)c4ccc(-c5c(O)cccc5F)c(F)c4n3)c2C1 [P-0332, 2-(4-((1R,5S)-3,8-diazabicyclo[3.2.1]octan-3-yl)-8-fluoro-2-((2-methyl-1,2,3,4-tetrahydroisoquinolin-8-yl)oxy)quinazolin-7-yl)-3-fluorophenol]	10 to 100	10 to 100
Cc1cc2cn[nH]c2cc1-c1ccc2c(N3C[C@H]4CC[C@@H](C3)N4)nc(OCC3CCCN3C)nc2c1 (stereo partly drawn) [P-0155, 4-((1R,5S)-3,8-diazabicyclo[3.2.1]octan-3-yl)-7-(5-methyl-1H-indazol-6-yl)-2-((1-methylpyrrolidin-2-yl)methoxy)quinazoline]	100 to 1000	10 to 100
Cc1[nH][nH]c(=O)c1CC(=O)N1[C@@H]2CC[C@H]1CN(c1nc(OCC34CCCN3CCC4)nc3c(F)c(-c4cc(O)cc5ccccc45)ccc13)C2 [P-0388, 4-(2-((1R,5S)-3-(8-fluoro-7-(3-hydroxynaphthalen-1-yl)-2-((tetrahydro-1H-pyrrolizin-7a(5H)-yl)methoxy)quinazolin-4-yl)-3,8-diazabicyclo[3.2.1]octan-8-yl)-2-oxoethyl)-5-methyl-1,2-dihydro-3H-pyrazol-3-one]	0.0001 to 10	0.0001 to 10
CN(C)C(C)(C)CNc1nc(N2C[C@H]3CC[C@@H](C2)N3)c2ccc(-c3cc(O)cc4ccccc34)c(F)c2n1 [P-0630, 4-(4-((1R,5S)-3,8-diazabicyclo[3.2.1]octan-3-yl)-2-((2-(dimethylamino)-2-methylpropyl)amino)-8-fluoroquinazolin-7-yl)naphthalen-2-ol]	0.0001 to 10	10 to 100
O=C(NCCN1CCOCC1)N1[C@@H]2CC[C@H]1CN(c1nc(OCC34CCCN3CCC4)nc3cc(-c4cc(O)cc5ccccc45)ccc13)C2 [P-0029, (1R,5S)-3-(7-(3-hydroxynaphthalen-1-yl)-2-((tetrahydro-1H-pyrrolizin-7a(5H)-yl)methoxy)quinazolin-4-yl)-N-(2-morpholinoethyl)-3,8-diazabicyclo[3.2.1]octane-8-carboxamide]	0.0001 to 10	0.0001 to 10
CN1CCC[C@H]1COc1nc(N2C[C@H]3CC[C@@H](C2)N3)c2ccc(N3CCNc4ccccc43)c(F)c2n1 [P-0306, 4-((1R,5S)-3,8-diazabicyclo[3.2.1]octan-3-yl)-7-(3,4-dihydroquinoxalin-1(2H)-yl)-8-fluoro-2-(((S)-1-methylpyrrolidin-2-yl)methoxy)quinazoline]	0.0001 to 10	10 to 100
CN1CCC[C@H]1COc1nc(N2C[C@H]3CC[C@@H](C2)N3C(=O)Cc2cc[nH]n2)c2ccc(-c3cc(O)cc4ccccc34)c(F)c2n1 [P-0470, 1-((1R,5S)-3-(8-fluoro-7-(3-hydroxynaphthalen-1-yl)-2-(((S)-1-methylpyrrolidin-2-yl)methoxy)quinazolin-4-yl)-3,8-diazabicyclo[3.2.1]octan-8-yl)-2-(1H-pyrazol-3-yl)ethan-1-one]	100 to 1000	10 to 100
CN1CCC[C@H]1COc1nc(N2C[C@H]3CC[C@@H](C2)N3C(=O)c2n[nH]c(=O)[nH]2)c2ccc(-c3cc(O)cc4ccccc34)c(F)c2n1 [P-0107, 5-((1R,5S)-3-(8-fluoro-7-(3-hydroxynaphthalen-1-yl)-2-(((S)-1-methylpyrrolidin-2-yl)methoxy)quinazolin-4-yl)-3,8-diazabicyclo[3.2.1]octane-8-carbonyl)-2,4-dihydro-3H-1,2,4-triazol-3-one]	0.0001 to 10	0.0001 to 10
CN1C(=O)C(CC(=O)N2[C@@H]3CC[C@H]2CN(c2nc(OCC45CCCN4CCC5)nc4c(F)c(-c5cc(O)cc6ccccc56)ccc24)C3)N(C)C1=O (stereo partly drawn) [P-0386, 5-(2-((1R,5S)-3-(8-fluoro-7-(3-hydroxynaphthalen-1-yl)-2-((tetrahydro-1H-pyrrolizin-7a(5H)-yl)methoxy)quinazolin-4-yl)-3,8-diazabicyclo[3.2.1]octan-8-yl)-2-oxoethyl)-1,3-dimethylimidazolidine-2,4-dione]	0.0001 to 10	0.0001 to 10
Cc1ccc2[nH]ncc2c1-c1c(F)cc2c(N3C[C@H]4CC[C@@H](C3)N4)nc(OC[C@@H]3CCCN3C)nc2c1F [P-0303, 4-((1R,5S)-3,8-diazabicyclo[3.2.1]octan-3-yl)-6,8-difluoro-7-(5-methyl-1H-indazol-4-yl)-2-(((S)-1-methylpyrrolidin-2-yl)methoxy)quinazoline]	0.0001 to 10	10 to 100

Next, values leading:

IC50 [1] [µM]	IC50 [2] [µM]	SMILES
10 to 100	10 to 100	CN1CCC[C@H]1COc1nc(N2[C@@H]3CC[C@H]2CN(C(=O)Nc2cccnc2)C3)c2ccc(-c3cc(O)cc4ccccc34)cc2n1 [P-0210, (1R,5S)-8-(7-(3-hydroxynaphthalen-1-yl)-2-(((S)-1-methylpyrrolidin-2-yl)methoxy)quinazolin-4-yl)-N-(pyridin-3-yl)-3,8-diazabicyclo[3.2.1]octane-3-carboxamide]
10 to 100	10 to 100	CN1CCC[C@H]1COc1nc(N2[C@@H]3CC[C@H]2CN(C(=O)CC(C)(C)O)C3)c2ccc(-c3cc(O)cc4ccccc34)cc2n1 [P-0311, 3-hydroxy-1-((1R,5S)-8-(7-(3-hydroxynaphthalen-1-yl)-2-(((S)-1-methylpyrrolidin-2-yl)methoxy)quinazolin-4-yl)-3,8-diazabicyclo[3.2.1]octan-3-yl)-3-methylbutan-1-one]
0.0001 to 10	10 to 100	CN1CCC[C@H]1COc1nc(N2CC3CCC(C2)N3C(=O)CCCN2CCOCC2)c2ccc(-c3cc(O)cc4ccccc34)c(F)c2n1 (racemic) [P-0429, 1-((1R,5S)-3-(8-fluoro-7-(3-hydroxynaphthalen-1-yl)-2-(((RS)-1-methylpyrrolidin-2-yl)methoxy)quinazolin-4-yl)-3,8-diazabicyclo[3.2.1]octan-8-yl)-4-morpholinobutan-1-one]
0.0001 to 10	10 to 100	CN1CCC[C@H]1COc1nc(N2[C@@H]3CC[C@H]2CN(CC(=O)C2CCNCC2)C3)c2ccc(-c3cc(O)cc4ccccc34)cc2n1 [P-0345, 2-((1R,5S)-8-(7-(3-hydroxynaphthalen-1-yl)-2-(((S)-1-methylpyrrolidin-2-yl)methoxy)quinazolin-4-yl)-3,8-diazabicyclo[3.2.1]octan-3-yl)-1-(piperidin-4-yl)ethan-1-one]
10 to 100	10 to 100	CN1CCC[C@H]1COc1nc(N2C[C@H]3CC[C@@H](C2)N3C(=O)CC2CCNC2=O)c2ccc(-c3cc(O)cc4ccccc34)cc2n1 (stereo partly drawn) [P-0371, 3-(2-((1R,5S)-3-(7-(3-hydroxynaphthalen-1-yl)-2-(((S)-1-methylpyrrolidin-2-yl)methoxy)quinazolin-4-yl)-3,8-diazabicyclo[3.2.1]octan-8-yl)-2-oxoethyl)pyrrolidin-2-one]
10 to 100	10 to 100	CN1CCC[C@H]1COc1nc(N2[C@@H]3CC[C@H]2CN(C(=O)CCC2CCCCN2)C3)c2ccc(-c3cc(O)cc4ccccc34)cc2n1 (stereo partly drawn) [P-0191, 1-((1R,5S)-8-(7-(3-hydroxynaphthalen-1-yl)-2-(((S)-1-methylpyrrolidin-2-yl)methoxy)quinazolin-4-yl)-3,8-diazabicyclo[3.2.1]octan-3-yl)-3-(piperidin-2-yl)propan-1-one]
10 to 100	10 to 100	CN1CCC[C@H]1COc1nc(N2[C@@H]3CC[C@H]2CN(C(=O)CCC2CNCCN2)C3)c2ccc(-c3cc(O)cc4ccccc34)cc2n1 (stereo partly drawn) [P-0194, 1-((1R,5S)-8-(7-(3-hydroxynaphthalen-1-yl)-2-(((S)-1-methylpyrrolidin-2-yl)methoxy)quinazolin-4-yl)-3,8-diazabicyclo[3.2.1]octan-3-yl)-3-(piperazin-2-yl)propan-1-one]
10 to 100	10 to 100	CN1CCC[C@H]1COc1nc(N2[C@@H]3CC[C@H]2CN(C(=O)CNC(N)=O)C3)c2ccc(-c3cc(O)cc4ccccc34)cc2n1 [P-0317, 1-(2-((1R,5S)-8-(7-(3-hydroxynaphthalen-1-yl)-2-(((S)-1-methylpyrrolidin-2-yl)methoxy)quinazolin-4-yl)-3,8-diazabicyclo[3.2.1]octan-3-yl)-2-oxoethyl)urea]
0.0001 to 10	10 to 100	CN1CCC[C@H]1COc1nc(N2[C@@H]3CC[C@H]2CN(CC(O)CN2CCOCC2)C3)c2ccc(-c3cc(O)cc4ccccc34)cc2n1 (stereo partly drawn) [P-0346, 4-(4-((1R,5S)-3-(2-hydroxy-3-morpholinopropyl)-3,8-diazabicyclo[3.2.1]octan-8-yl)-2-(((S)-1-methylpyrrolidin-2-yl)methoxy)quinazolin-7-yl)naphthalen-2-ol]
